# Molecular target: T1, P2X7 (UniProt Q99572)
# T1 sequence (Q99572 1-595): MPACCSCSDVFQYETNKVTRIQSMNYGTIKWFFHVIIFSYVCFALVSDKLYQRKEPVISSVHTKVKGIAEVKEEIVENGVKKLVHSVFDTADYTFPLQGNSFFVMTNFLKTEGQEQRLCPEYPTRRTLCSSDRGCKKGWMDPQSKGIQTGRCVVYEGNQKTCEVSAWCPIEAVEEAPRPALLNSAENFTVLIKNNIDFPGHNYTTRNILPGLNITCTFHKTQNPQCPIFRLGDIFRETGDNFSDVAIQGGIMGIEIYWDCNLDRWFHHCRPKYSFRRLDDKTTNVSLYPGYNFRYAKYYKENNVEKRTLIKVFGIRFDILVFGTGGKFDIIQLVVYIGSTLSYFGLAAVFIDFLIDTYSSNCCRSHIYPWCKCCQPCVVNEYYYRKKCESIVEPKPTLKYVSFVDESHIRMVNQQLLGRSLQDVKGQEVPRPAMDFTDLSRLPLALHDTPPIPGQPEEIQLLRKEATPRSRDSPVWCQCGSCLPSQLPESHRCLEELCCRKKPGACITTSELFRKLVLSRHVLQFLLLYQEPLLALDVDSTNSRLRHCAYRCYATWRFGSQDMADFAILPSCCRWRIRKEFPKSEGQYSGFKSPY
# Test: P2X7 activity of Table 1
# Type: cell-based
# Conditions: pIC50 values for P2X7
# Summary of the method: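 FLIPR calcium flux with fluo-3 in 1321N1 cells expressing human P2X7 and HEK293 cells expressing rat P2X7, in HBSS with 2 mM CaCl2 and 2.5 mM probenecid. Antagonist pre-incubated 20 min at room temperature, then BzATP added (100 μM human, 5 μM rat). Peak response over 5 min normalised to 5 μM ionomycin.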
row,Compound,pIC50
1,"Cc1ccc(-c2ccn[nH]c2=O)cc1NC(=O)C1=CN(C)C(=O)C[C@H]1c1ccc(F)cc1 [Compound 72, (S)-4-(4-Fluoro-phenyl)-1-methyl-6-oxo-1,4,5,6-tetrahydro-pyridine-3-carboxylic acid [2-methyl-5-(3-oxo-2,3-dihydro-pyridazin-4-yl)-phenyl]-amide]",7.8367
2,"Cc1ccc(-c2cc(C)n(C[C@@H](C)O)n2)cc1NC(=O)C1=CN(C)C(=O)C[C@H]1c1ccc(F)cc1 [Compound 73, (S)-4-(4-Fluoro-phenyl)-1-methyl-6-oxo-1,4,5,6-tetrahydro-pyridine-3-carboxylic acid {5-[1-((R)-2-hydroxy-propyl)-5-methyl-1H-pyrazol-3-yl]-2-methyl-phenyl}-amide]",7.255
3,"Cc1ccc(-c2cc(C)n(C[C@H](C)O)n2)cc1NC(=O)C1=CN(C)C(=O)C[C@H]1c1ccc(F)cc1 [Compound 74, (S)-4-(4-Fluoro-phenyl)-1-methyl-6-oxo-1,4,5,6-tetrahydro-pyridine-3-carboxylic acid {5-[1-((S)-2-hydroxy-propyl)-5-methyl-1H-pyrazol-3-yl]-2-methyl-phenyl}-amide]",7.47
4,"COC[C@H](O)Cn1nc(-c2ccc(C)c(NC(=O)C3=CNC(=O)C[C@H]3c3ccc(F)cc3)c2)cc1C [Compound 75, (S)-4-(4-Fluoro-phenyl)-6-oxo-1,4,5,6-tetrahydro-pyridine-3-carboxylic acid {5-[1-((R)-2-hydroxy-3-methoxy-propyl)-5-methyl-1H-pyrazol-3-yl]-2-methyl-phenyl}-amide]",7.72
5,"COC[C@H](O)Cn1nc(-c2ccc(C)c(NC(=O)C3=CN(C)C(=O)C[C@H]3c3ccc(F)cc3)c2)cc1C [Compound 76, (S)-4-(4-Fluoro-phenyl)-1-methyl-6-oxo-1,4,5,6-tetrahydro-pyridine-3-carboxylic acid {5-[1-((R)-2-hydroxy-3-methoxy-propyl)-5-methyl-1H-pyrazol-3-yl]-2-methyl-phenyl}-amide]",7.45
6,"Cc1ccc(=O)n(-c2ccc(C)c(NC(=O)C3=CNC(=O)C[C@H]3c3ccc(F)cc3)c2)n1 [Compound 78, (S)-4-(4-Fluoro-phenyl)-6-oxo-1,4,5,6-tetrahydro-pyridine-3-carboxylic acid [2-methyl-5-(3-methyl-6-oxo-6H-pyridazin-1-yl)-phenyl]-amide]",7.31
7,"Cc1ccc(-c2ccnn(C)c2=O)cc1NC(=O)C1=CN(C)C(=O)C[C@H]1c1ccc(F)cc1 [Compound 81, (S)-4-(4-Fluoro-phenyl)-1-methyl-6-oxo-1,4,5,6-tetrahydro-pyridine-3-carboxylic acid [2-methyl-5-(2-methyl-3-oxo-2,3-dihydro-pyridazin-4-yl)-phenyl]-amide]",7.94
8,"Cc1ccc(-c2cncc(=O)[nH]2)cc1NC(=O)C1=CNC(=O)C[C@H]1c1ccc(F)cc1 [Compound 82, (S)-4-(4-Fluoro-phenyl)-6-oxo-1,4,5,6-tetrahydro-pyridine-3-carboxylic acid [2-methyl-5-(6-oxo-1,6-dihydro-pyrazin-2-yl)-phenyl]-amide]",5.395
9,"Cc1ccc(-c2cc(C)n(CC(=O)O)n2)cc1NC(=O)C1=CNC(=O)C[C@H]1c1ccc(F)cc1 [Compound 83, [3-(3-{[(S)-4-(4-Fluoro-phenyl)-6-oxo-1,4,5,6-tetrahydro-pyridine-3-carbonyl]-amino}-4-methyl-phenyl)-5-methyl-pyrazol-1-yl]-acetic acid]",6.335
10,"Cc1ccc(-c2ccn[nH]c2=O)cc1NC(=O)C1=CN(C)C(=O)C[C@H]1c1cccc(F)c1 [Compound 87, (S)-4-(3-Fluoro-phenyl)-1-methyl-6-oxo-1,4,5,6-tetrahydro-pyridine-3-carboxylic acid [2-methyl-5-(3-oxo-2,3-dihydro-pyridazin-4-yl)-phenyl]-amide]",7.884

# The remaining lines, values ahead:
row,pIC50,Compound
1,8.395,"Cc1ccc(-c2ccnn(C)c2=O)cc1NC(=O)C1=CNC(=O)C[C@H]1c1ccc(F)cc1 [Compound 71, (S)-4-(4-Fluoro-phenyl)-6-oxo-1,4,5,6-tetrahydro-pyridine-3-carboxylic acid [2-methyl-5-(2-methyl-3-oxo-2,3-dihydro-pyridazin-4-yl)-phenyl]-amide]"
2,7.5367,"COC[C@H](O)Cn1c(=O)cnn(-c2ccc(C)c(NC(=O)C3=CN(C)C(=O)C[C@H]3c3ccc(F)cc3)c2)c1=O [Compound 77, (S)-4-(4-Fluoro-phenyl)-1-methyl-6-oxo-1,4,5,6-tetrahydro-pyridine-3-carboxylic acid {5-[4-((R)-2-hydroxy-3-methoxy-propyl)-3,5-dioxo-4,5-dihydro-3H-[1,2,4]triazin-2-yl]-2-methyl-phenyl}-amide]"
3,6.58,"Cc1cncc(-c2ccc(C)c(NC(=O)C3=CNC(=O)C[C@H]3c3ccc(F)cc3)c2)n1 [Compound 79, (S)-4-(4-Fluoro-phenyl)-6-oxo-1,4,5,6-tetrahydro-pyridine-3-carboxylic acid [2-methyl-5-(6-methyl-pyrazin-2-yl)-phenyl]-amide]"
4,7.315,"Cc1ccnc(-c2ccc(C)c(NC(=O)C3=CNC(=O)C[C@H]3c3ccc(F)cc3)c2)n1 [Compound 80, (S)-4-(4-Fluoro-phenyl)-6-oxo-1,4,5,6-tetrahydro-pyridine-3-carboxylic acid [2-methyl-5-(4-methyl-pyrimidin-2-yl)-phenyl]-amide]"
5,7.53,"Cc1ccc(-c2ccn(CCO)n2)cc1NC(=O)C1=CNC(=O)C[C@H]1c1ccc(F)cc1 [Compound 84, (S)-4-(4-Fluoro-phenyl)-6-oxo-1,4,5,6-tetrahydro-pyridine-3-carboxylic acid {5-[1-(2-hydroxy-ethyl)-1H-pyrazol-3-yl]-2-methyl-phenyl}-amide]"
6,7.375,"Cc1ccc(-c2cc(C)n(CCO)n2)cc1NC(=O)C1=CNC(=O)CC1c1ccc(F)c(F)c1 (stereo not shown) [Compound 85, 4-(3,4-Difluoro-phenyl)-6-oxo-1,4,5,6-tetrahydro-pyridine-3-carboxylic acid {5-[1-(2-hydroxy-ethyl)-5-methyl-1H-pyrazol-3-yl]-2-methyl-phenyl}-amide]"
7,7.62,"Cc1ccc(-c2ccnn(C)c2=O)cc1NC(=O)C1=CN(C)C(=O)C[C@H]1c1cccc(F)c1 [Compound 86, (S)-4-(3-Fluoro-phenyl)-1-methyl-6-oxo-1,4,5,6-tetrahydro-pyridine-3-carboxylic acid [2-methyl-5-(2-methyl-3-oxo-2,3-dihydro-pyridazin-4-yl)-phenyl]-amide]"
8,7.53,"Cc1ccc(-n2ncccc2=O)cc1NC(=O)C1=CNC(=O)C[C@H]1c1cccc(F)c1 [Compound 89, (S)-4-(3-Fluoro-phenyl)-6-oxo-1,4,5,6-tetrahydro-pyridine-3-carboxylic acid [2-methyl-5-(6-oxo-6H-pyridazin-1-yl)-phenyl]-amide]"
9,7.2,"COC[C@H](O)Cn1nc(-c2ccc(C)c(NC(=O)C3=CN(C)C(=O)C[C@H]3c3cccc(F)c3)c2)cc1C [Compound 90, (S)-4-(3-Fluoro-phenyl)-1-methyl-6-oxo-1,4,5,6-tetrahydro-pyridine-3-carboxylic acid {5-[1-((R)-2-hydroxy-3-methoxy-propyl)-5-methyl-1H-pyrazol-3-yl]-2-methyl-phenyl}-amide]"

# From patent US8163929B2, “Dihydropyridone amides as P2X7 modulators” (Roche Palo Alto LLC, priority 2008, dated 2012)
